# Assay results: ChEMBL document CHEMBL5550204, “Discovery of ZJCK-6-46: A Potent, Selective, and Orally Available Dual-Specificity Tyrosine Phosphorylation-Regulated Kinase 1A Inhibitor for the Treatment of Alzheimer's Disease” (J Med Chem, 2024)
# Active and inactive are the calls of the source. The rule behind the calls is not given here.
# Legend:
# [1] = Toxicity in okadaic acid-induced cognitive impairment C57BL/6 mouse assessed as change in serum BUN level at 10 to 30 mg/kg,po once daily for 2 weeks; format: organism-based; conditions: in vivo, 336 h, dose 10-30 mg/kg
# [2] = Acute toxicity in C57BL/6 mouse assessed as histopathological change in kidney at 500 mg/kg,po observed after 14 days by hematoxylin-eosin staining based analysis; format: organism-based; conditions: in vivo, 336 h, time 14 day
# [3] = Toxicity in okadaic acid-induced cognitive impairment C57BL/6 mouse assessed as change in serum TBIL level at 10 to 30 mg/kg,po once daily for 2 weeks; format: organism-based; conditions: in vivo, 336 h, dose 10-30 mg/kg
# [4] = Toxicity in okadaic acid-induced cognitive impairment C57BL/6 mouse assessed as change in serum ALT level at 10 to 30 mg/kg,po once daily for 2 weeks; format: organism-based; conditions: in vivo, 336 h, dose 10-30 mg/kg
# [5] = Half life in Sprague-Dawley rat at 10 mg/kg,po measured upto 24 hrs by LC-MS/MS analysis; format: ADME, organism-based; conditions: in vivo
# [6] = target: Dual specificity tyrosine-phosphorylation-regulated kinase 2 (Homo sapiens) (UniProt Q92630); assay: Inhibition of DYRK2 (unknown origin) at 1 uM preincubated with enzyme for 10 mins followed by substrate and ATP addition measured after 60 mins by ADP-Glo reagent based assay relative to control; conditions: time 70.0 min
# Chain of Dual specificity tyrosine-phosphorylation-regulated kinase 2 (Homo sapiens) (Q92630 whole entry): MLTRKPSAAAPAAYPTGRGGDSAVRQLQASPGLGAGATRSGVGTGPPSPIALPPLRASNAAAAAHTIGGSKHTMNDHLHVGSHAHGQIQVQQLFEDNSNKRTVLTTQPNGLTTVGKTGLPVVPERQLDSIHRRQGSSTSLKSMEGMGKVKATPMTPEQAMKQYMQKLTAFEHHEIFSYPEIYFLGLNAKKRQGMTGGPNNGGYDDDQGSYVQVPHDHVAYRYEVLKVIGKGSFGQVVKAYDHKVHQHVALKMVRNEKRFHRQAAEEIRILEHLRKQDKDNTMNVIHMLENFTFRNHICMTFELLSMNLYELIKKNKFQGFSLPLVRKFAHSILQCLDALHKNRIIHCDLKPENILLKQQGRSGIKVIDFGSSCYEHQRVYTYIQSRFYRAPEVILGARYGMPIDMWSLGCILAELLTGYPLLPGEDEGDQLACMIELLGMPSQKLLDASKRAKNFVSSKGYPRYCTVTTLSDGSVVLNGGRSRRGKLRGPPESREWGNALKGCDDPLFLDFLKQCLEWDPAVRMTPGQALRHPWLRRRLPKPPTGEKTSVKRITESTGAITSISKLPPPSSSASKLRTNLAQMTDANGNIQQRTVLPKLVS
# [7] = Acute toxicity in C57BL/6 mouse assessed as histopathological change in spleen at 500 mg/kg,po observed after 14 days by hematoxylin-eosin staining based analysis; format: organism-based; conditions: in vivo, 336 h, time 14 day
# [8] = target: Dual specificity protein kinase CLK3 (Homo sapiens, UniProt P49761); assay: Inhibition of CLK3 (unknown origin) preincubated with enzyme for 10 mins followed by substrate and ATP addition measured after 60 mins by ADP-Glo reagent based assay
# Chain of Dual specificity protein kinase CLK3 (P49761 whole entry): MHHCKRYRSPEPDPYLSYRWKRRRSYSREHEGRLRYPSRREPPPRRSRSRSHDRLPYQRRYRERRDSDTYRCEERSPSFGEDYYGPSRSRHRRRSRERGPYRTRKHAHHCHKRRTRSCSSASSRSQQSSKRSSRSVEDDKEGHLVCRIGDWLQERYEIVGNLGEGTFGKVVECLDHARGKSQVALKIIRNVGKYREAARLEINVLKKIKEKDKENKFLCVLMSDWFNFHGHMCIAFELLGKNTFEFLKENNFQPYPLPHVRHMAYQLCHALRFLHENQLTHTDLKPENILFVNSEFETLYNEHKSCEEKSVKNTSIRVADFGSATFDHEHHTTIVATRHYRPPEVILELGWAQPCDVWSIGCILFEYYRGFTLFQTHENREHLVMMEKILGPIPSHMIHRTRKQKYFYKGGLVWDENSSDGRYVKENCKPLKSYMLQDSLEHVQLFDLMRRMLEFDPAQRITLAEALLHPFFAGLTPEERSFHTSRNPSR
# HEK-293T = assay: Cytotoxicity against human HEK293T cells expressing human Tau P301L mutant at 0.15625 to 10 uM incubated for 24 hrs by MTT assay; format: toxicity, cell-based; conditions: dose 0.15625-10 µM
# [9] = Toxicity in okadaic acid-induced cognitive impairment C57BL/6 mouse assessed as change in serum AKP level at 10 to 30 mg/kg,po once daily for 2 weeks; format: organism-based; conditions: in vivo, 336 h, dose 10-30 mg/kg
# [10] = target: Dual specificity protein kinase CLK4 (Homo sapiens, UniProt Q9HAZ1); assay: Inhibition of CLK4 (unknown origin) preincubated with enzyme for 10 mins followed by substrate and ATP addition measured after 60 mins by ADP-Glo reagent based assay
# Chain of Dual specificity protein kinase CLK4 (Q9HAZ1 whole entry): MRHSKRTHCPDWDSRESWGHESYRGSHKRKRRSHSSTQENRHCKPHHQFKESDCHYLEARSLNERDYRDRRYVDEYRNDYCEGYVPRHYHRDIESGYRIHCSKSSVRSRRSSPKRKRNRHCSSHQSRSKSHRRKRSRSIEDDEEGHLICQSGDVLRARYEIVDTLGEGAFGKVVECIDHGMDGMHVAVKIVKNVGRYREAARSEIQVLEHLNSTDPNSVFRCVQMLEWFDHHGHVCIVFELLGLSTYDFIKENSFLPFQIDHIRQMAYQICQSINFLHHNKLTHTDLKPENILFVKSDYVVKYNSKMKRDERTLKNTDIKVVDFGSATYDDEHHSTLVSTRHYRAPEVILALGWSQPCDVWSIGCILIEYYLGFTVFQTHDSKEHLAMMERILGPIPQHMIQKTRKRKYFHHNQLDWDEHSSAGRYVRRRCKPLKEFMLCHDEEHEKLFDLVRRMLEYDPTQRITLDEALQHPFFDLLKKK
# Mus musculus = assay: Antialzheimer activity in okadaic acid-induced cognitive impairment C57BL/6 mouse assessed as downregulation of Tau phosphorylation at Thr212 residue in temporal cortex at 10 to 30 mg/kg,po once daily for 2 weeks by ELISA; format: functional, organism-based; conditions: dose 10-30 mg/kg
# [11] = Acute toxicity in C57BL/6 mouse assessed as change in kidney weight at 500 mg/kg,po observed after 14 days; format: organism-based; conditions: in vivo, 336 h, time 14 day
# CYP2C9 = CYP2C9 (Homo sapiens, UniProt P11712); assay: Inhibition of CYP2C9 in human liver microsomes using diclofenac as substrate at 10 uM preincubated for 10 mins followed by NADPH addition and measured after 40 mins by LC-MS/MS analysis relative to control; format: ADME, Microsome; conditions: probe diclofenac, time 50 min
# [12] = MRT (0 to infinity) in Sprague-Dawley rat at 2 mg/kg,iv measured upto 24 hrs by LC-MS/MS analysis; format: ADME, organism-based; conditions: in vivo
# [13] = Acute toxicity in C57BL/6 mouse assessed as change in heart weight at 500 mg/kg,po observed after 14 days; format: organism-based; conditions: in vivo, 336 h, time 14 day
# CYP3A4 = CYP3A4 (Homo sapiens, UniProt P08684); assay: Inhibition of CYP3A4 in human liver microsomes using testosterone as substrate at 10 uM preincubated for 10 mins followed by NADPH addition and measured after 40 mins by LC-MS/MS analysis relative to control; format: ADME, Microsome; conditions: probe testosterone, time 50 min
# Chain of CYP3A4 (P08684 whole entry): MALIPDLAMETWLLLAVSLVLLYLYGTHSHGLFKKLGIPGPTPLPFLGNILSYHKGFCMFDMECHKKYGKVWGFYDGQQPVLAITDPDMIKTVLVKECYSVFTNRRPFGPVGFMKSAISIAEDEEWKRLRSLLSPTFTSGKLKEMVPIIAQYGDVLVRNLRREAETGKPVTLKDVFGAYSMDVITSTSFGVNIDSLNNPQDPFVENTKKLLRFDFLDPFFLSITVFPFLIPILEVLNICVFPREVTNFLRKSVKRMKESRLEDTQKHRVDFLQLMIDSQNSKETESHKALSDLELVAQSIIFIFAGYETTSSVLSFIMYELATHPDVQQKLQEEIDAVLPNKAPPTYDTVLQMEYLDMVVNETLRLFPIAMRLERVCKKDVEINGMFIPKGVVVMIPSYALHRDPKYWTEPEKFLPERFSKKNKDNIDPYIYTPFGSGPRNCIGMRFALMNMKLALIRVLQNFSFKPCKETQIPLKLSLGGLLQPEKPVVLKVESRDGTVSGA
# [14] = Permeability of compound at pH 7.4 at 10 uM incubated for 16 hrs by PAMPA-BBB assay based LC-MS/MS analysis
# [15] = Acute toxicity in C57BL/6 mouse assessed as change in spleen weight at 500 mg/kg,po observed after 14 days; format: organism-based; conditions: in vivo, 336 h, time 14 day
# Cytochrome P450 2C19 = Cytochrome P450 2C19 (Homo sapiens, UniProt P33261); assay: Inhibition of CYP2C19 in human liver microsomes using mephenytoin as substrate preincubated for 10 mins followed by NADPH addition and measured after 40 mins by LC-MS/MS analysis; format: ADME, Microsome
# Chain of Cytochrome P450 2C19 (P33261 whole entry): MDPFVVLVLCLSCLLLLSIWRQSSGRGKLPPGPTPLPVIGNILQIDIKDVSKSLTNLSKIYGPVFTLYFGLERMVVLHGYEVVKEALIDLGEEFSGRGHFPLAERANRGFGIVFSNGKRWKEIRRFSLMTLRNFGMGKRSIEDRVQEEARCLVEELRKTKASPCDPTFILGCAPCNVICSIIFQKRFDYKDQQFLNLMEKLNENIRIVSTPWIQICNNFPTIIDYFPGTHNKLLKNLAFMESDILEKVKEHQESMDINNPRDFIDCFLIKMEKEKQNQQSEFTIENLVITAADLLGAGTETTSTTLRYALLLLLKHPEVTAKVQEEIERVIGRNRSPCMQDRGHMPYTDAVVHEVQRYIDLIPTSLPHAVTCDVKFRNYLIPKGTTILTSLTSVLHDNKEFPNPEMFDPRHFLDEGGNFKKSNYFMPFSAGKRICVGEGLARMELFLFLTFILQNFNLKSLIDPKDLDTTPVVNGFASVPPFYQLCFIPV
# [16] = Drug concentration in Sprague-Dawley rat plasma at 10 mg/kg,po measured after 2 hrs by LC-MS/MS analysis; format: ADME, organism-based
# CDK9/cyclin T1 = CDK9/cyclin T1 (Homo sapiens, UniProt P50750); assay: Inhibition of CDK9/Cyclin T1 (unknown origin) preincubated with enzyme for 10 mins followed by substrate and ATP addition measured after 60 mins by ADP-Glo reagent based assay; format: protein-complex assay
# Chain of CDK9/cyclin T1 (O60563 whole entry): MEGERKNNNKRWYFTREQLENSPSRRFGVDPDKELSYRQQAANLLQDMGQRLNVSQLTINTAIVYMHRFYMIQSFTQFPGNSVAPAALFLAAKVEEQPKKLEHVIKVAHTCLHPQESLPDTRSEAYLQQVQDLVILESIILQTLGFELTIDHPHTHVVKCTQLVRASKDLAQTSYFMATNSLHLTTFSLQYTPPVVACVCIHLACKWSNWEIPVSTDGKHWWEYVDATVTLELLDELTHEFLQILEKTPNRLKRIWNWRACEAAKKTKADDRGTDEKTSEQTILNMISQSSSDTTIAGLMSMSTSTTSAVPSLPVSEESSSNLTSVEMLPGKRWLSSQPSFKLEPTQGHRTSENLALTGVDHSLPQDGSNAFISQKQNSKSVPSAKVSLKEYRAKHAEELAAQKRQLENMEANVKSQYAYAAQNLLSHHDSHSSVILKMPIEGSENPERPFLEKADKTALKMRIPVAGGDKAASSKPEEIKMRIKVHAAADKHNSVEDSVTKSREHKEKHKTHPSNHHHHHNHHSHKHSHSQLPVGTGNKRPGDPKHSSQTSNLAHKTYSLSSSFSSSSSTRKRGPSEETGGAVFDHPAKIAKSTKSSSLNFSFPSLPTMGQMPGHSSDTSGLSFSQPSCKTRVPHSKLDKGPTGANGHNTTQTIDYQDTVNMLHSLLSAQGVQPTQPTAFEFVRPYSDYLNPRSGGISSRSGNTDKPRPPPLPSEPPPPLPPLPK
# Chain of CDK9/cyclin T1 (P50750 whole entry): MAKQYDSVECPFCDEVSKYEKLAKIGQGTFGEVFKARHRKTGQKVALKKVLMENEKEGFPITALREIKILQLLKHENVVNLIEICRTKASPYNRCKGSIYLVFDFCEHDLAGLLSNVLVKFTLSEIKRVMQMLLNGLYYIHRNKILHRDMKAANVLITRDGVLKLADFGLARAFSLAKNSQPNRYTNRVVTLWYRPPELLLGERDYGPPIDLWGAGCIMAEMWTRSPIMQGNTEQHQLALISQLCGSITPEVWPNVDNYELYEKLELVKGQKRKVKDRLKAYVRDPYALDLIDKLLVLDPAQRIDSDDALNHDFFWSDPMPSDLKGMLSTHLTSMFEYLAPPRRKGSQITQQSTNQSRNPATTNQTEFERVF
# [17] = Drug concentration in Sprague-Dawley rat brain at 10 mg/kg,po measured after 6 hrs by LC-MS/MS analysis; format: ADME, organism-based; conditions: read-out: Ct
# [18] = Acute toxicity in C57BL/6 mouse assessed as change in lung weight at 500 mg/kg,po observed after 14 days; format: organism-based; conditions: in vivo, 336 h, time 14 day
# [19] = AUC (0 to infinity) in Sprague-Dawley rat at 10 mg/kg,po measured upto 24 hrs by LC-MS/MS analysis; format: ADME, organism-based; conditions: in vivo
# [20] = Apparent permeability across basolateral to apical side in dog MDCK-MDR1 cells at 5 uM incubated for 90 mins by LC-MS/MS analysis; format: ADME, cell-based, Canis lupus familiaris
# Cytochrome P450 2C9 = Cytochrome P450 2C9 (Homo sapiens, UniProt P11712); assay: Inhibition of CYP2C9 in human liver microsomes using diclofenac as substrate preincubated for 10 mins followed by NADPH addition and measured after 40 mins by LC-MS/MS analysis; format: ADME, Microsome
# SH-SY5Y = assay: Cytotoxicity against human SH-SY5Y cells expressing human Tau P301L mutant at 0.15625 to 10 uM incubated for 24 hrs by MTT assay; format: functional, cell-based; conditions: dose 0.15625-10 µM
# [21] = AUC (0 to infinity) in Sprague-Dawley rat at 2 mg/kg,iv measured upto 24 hrs by LC-MS/MS analysis; format: ADME, organism-based; conditions: in vivo
# CYP1A2 = CYP1A2 (Homo sapiens, UniProt P05177); assay: Inhibition of CYP1A2 in human liver microsomes using phenacetin as substrate at 10 uM preincubated for 10 mins followed by NADPH addition and measured after 40 mins by LC-MS/MS analysis relative to control; format: ADME, Microsome; conditions: probe phenacetin, time 50 min
# Chain of CYP1A2 (P05177 whole entry): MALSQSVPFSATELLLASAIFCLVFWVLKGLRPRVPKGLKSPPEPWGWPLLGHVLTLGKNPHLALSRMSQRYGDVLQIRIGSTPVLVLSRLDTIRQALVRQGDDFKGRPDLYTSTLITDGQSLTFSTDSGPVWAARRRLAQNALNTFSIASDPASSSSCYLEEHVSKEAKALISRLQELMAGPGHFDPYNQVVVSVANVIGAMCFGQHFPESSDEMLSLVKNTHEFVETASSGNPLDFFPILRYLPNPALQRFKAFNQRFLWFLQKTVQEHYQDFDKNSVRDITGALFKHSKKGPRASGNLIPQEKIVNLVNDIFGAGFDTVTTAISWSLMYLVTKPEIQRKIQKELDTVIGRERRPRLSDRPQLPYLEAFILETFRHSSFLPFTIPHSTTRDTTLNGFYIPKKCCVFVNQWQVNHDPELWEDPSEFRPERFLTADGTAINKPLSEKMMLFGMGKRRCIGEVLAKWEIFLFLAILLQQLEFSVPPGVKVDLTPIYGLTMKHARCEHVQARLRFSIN
# [22] = Cmax in Sprague-Dawley rat at 10 mg/kg,po measured upto 24 hrs by LC-MS/MS analysis; format: ADME, organism-based; conditions: in vivo
# [23] = Half life in Sprague-Dawley rat at 2 mg/kg,iv measured upto 24 hrs by LC-MS/MS analysis; format: ADME, organism-based; conditions: in vivo
# [24] = target: Dual specificity tyrosine-phosphorylation-regulated kinase 4 (Homo sapiens, UniProt Q9NR20); assay: Inhibition of DYRK4 (unknown origin) preincubated with enzyme for 10 mins followed by substrate and ATP addition measured after 60 mins by ADP-Glo reagent based assay
# Chain of Dual specificity tyrosine-phosphorylation-regulated kinase 4 (Q9NR20 whole entry): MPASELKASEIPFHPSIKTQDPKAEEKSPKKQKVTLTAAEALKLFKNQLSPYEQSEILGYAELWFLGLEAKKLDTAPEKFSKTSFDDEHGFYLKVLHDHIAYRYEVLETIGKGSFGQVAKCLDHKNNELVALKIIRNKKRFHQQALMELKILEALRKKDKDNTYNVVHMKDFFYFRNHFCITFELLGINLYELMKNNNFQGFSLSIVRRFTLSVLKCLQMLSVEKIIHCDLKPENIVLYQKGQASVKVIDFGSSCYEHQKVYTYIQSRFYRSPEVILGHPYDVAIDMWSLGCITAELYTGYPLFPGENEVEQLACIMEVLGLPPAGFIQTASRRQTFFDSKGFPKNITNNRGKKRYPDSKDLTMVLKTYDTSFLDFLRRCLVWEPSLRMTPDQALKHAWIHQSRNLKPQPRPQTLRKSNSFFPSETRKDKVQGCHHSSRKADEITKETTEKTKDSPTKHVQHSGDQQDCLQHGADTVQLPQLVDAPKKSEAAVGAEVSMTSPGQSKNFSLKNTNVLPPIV
# [25] = MRT (0 to t) in Sprague-Dawley rat at 10 mg/kg,po measured upto 24 hrs by LC-MS/MS analysis; format: ADME, organism-based; conditions: in vivo
smiles,measurement,setting,value
Cc1ccc2c(-c3ccc4ncnc(N[C@H](CO)c5ccccc5)c4c3)c[nH]c2n1,Activity,[1],Non-Toxic
same,Activity,[2],Non-Toxic
same,Activity,[3],Non-Toxic
same,Activity,[4],Non-Toxic
same,half-life,[5],237 min
same,inhibition,[6],105%
same,Activity,[7],Non-Toxic
same,IC50,[8],38.9 nM
same,Activity,HEK-293T,Non-Toxic
same,Activity,[9],Non-Toxic
same,IC50,[10],38.9 nM
same,Activity,Mus musculus,Active
same,Activity,[11],Non-Toxic
same,"inhibition at 40 min, 10 µM",CYP2C9,96.5%
same,MRT inf,[12],4.49 h
same,Activity,[13],Non-Toxic
same,"inhibition at 40 min, 10 µM",CYP3A4,63.3%
same,"Papp at 16 h, 10 µM",[14],13.4 ×10⁻⁶ cm/s
same,Activity,[15],Non-Toxic
same,IC50,Cytochrome P450 2C19,1030 nM
same,concentration at 2 h,[16],141 ng/mL
same,IC50,CDK9/cyclin T1,> 10 µM
same,concentration at 6 h,[17],13.1 ng/g
same,Activity,[18],Non-Toxic
same,AUC(0-inf),[19],3010 ng·h/mL
same,"Papp B→A at […], 5 µM",[20],30.6 ×10⁻⁶ cm/s
same,IC50,Cytochrome P450 2C9,240 nM
same,Activity,SH-SY5Y,inactive
same,AUC(0-inf),[21],1590 ng·h/mL
same,"inhibition at 40 min, 10 µM",CYP1A2,61.9%
same,Cmax,[22],230 ng/mL
same,half-life,[23],177 min
same,IC50,[24],401 nM
same,MRT last at 24 h,[25],5.77 h
